Key:
Type in all cases: in vivo
[1] = test system: diamondback moth (Plutella xylostella); experiment: Test A: control of diamondback moth on radish plant, foliar spray; settings: sprayed at 50 ppm, held 6 days
In short: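 Radish plants 12–14 days old, pre-infested with about 50 neonate larvae, sprayed at 50 ppm in 10% acetone/water with 300 ppm X-77 surfactant; three replicates. After 6 days at 25° C and 70% RH, feeding damage was scored visually and mortality counted.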

[2] = test system: fall armyworm (Spodoptera frugiperda); experiment: Test B: control of fall armyworm on corn (maize) plant, foliar spray; settings: sprayed at 50 ppm
In short: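 4-5-day-old corn plants pre-infested with 10-15 1-day-old larvae on insect diet, then sprayed with compound at 50 ppm in 10% acetone/90% water with 300 ppm surfactant, three replicates. Held 6 days at 25° C, 70% RH; feeding damage assessed visually and mortality rated.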

[3] = test system: western flower thrips (Frankliniella occidentalis); experiment: Test E: control of western flower thrips on Soleil bean plant, contact and/or systemic; settings: held 6 days
In short: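 5–7-day-old Soleil bean plants were sprayed at 250 or 50 ppm in 10% acetone/90% water with 300 ppm X-77 surfactant, three replicates. After drying 1 h, 22–27 adult thrips were added per unit. Mortality and plant damage were rated after 6 days at 25 °C and 45–55% RH.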

Measured: levels of control efficacy (20% or less feeding damage or 80% or more mortality)

CCNC(=O)CNC(=O)c1ccc(C2=NOC(c3cc(Cl)cc(C(F)(F)F)c3)(C(F)(F)F)C2)c2ccccc12 (centres unmarked) [Compound 119]
very good to excellent: [1] | [2] | [3]; sprayed at 50 ppm | [3]; sprayed at 250 ppm

CC(C)(C)CNC(=O)CNC(=O)c1ccc(C2=NOC(c3cc(Cl)cc(C(F)(F)F)c3)(C(F)(F)F)C2)c2ccccc12 (centres unmarked) [Compound 120]
very good to excellent: [1] | [2] | [3]; sprayed at 50 ppm | [3]; sprayed at 250 ppm

CC(NC(=O)c1ccc(C2=NOC(c3cc(C(F)(F)F)cc(C(F)(F)F)c3)(C(F)(F)F)C2)c2ccccc12)C(=O)NC(C)C(F)(F)F (centres unmarked) [Compound 121]
very good to excellent: [1] | [2] | [3]; sprayed at 250 ppm

Reference: US8410153B2, “Naphthalene isoxazoline invertebrate pest control agents” (E.I. du Pont de Nemours and Company, priority 2007, dated 2013)
